Experiments:
[1] = system: SVMP activity of E. ocellatus, E. carinatus, B. asper and B. arietans venoms; experiment: In vitro kinetic fluorogenic SVMP assay (Study 2); assay type: biochemical
From the text: FIG. 10. […] (A) SVMP activities of the five viper venoms quantified by fluorogenic assay. The data presented represent mean measurements and SEMs of area under the curves of fluorescent arbitrary units taken from three independent experimental runs. EOC, E. ocellatus; ECAR, E. carinatus; BAS, Bothrops asper, BAR, Bitis arietans; DRUS, Daboia russelii. (B) The effectiveness of metal chelators and peptidomimetic hydroxamate inhibitors at inhibiting the SVMP activity of the various viper venoms. Drug concentrations from 150 μM to 150 nM (highest to lowest dose tested) are presented. The data is expressed as percentage of the venom-only sample (100%, top dashed line). The negative control is presented as an interval (bottom dashed lines) and represents the values recorded in the PBS-only samples (expressed as percentage of venom activity), where the highest and the lowest values in each set of independent experiments are depicted. […] All data represent triplicate independent repeats with SEMs, where each technical repeat represents the mean of n≥2 technical replicates.
We used an in vitro kinetic fluorogenic assay^28 to assess the SVMP bioactivity of each venom and its inhibition by varying concentrations of the four SVMP-inhibitors.
The SVMP assay measuring metalloproteinase activity and the plasma assay measuring coagulation in the presence or absence of venoms and inhibitors were performed as previously described^28. The SVMP assay kinetically measured cleavage of a quenched fluorogenic substrate (ES010, R&D Biosystems) by venom in the presence or absence of inhibitors.
Briefly, 10 μl of the substrate (supplied as a 6.2 mM stock) was used per 5 ml reaction buffer (150 mM NaCl, 50 mM Tris-CI pH 7.5). Reactions consisted of 10 μl of venom±inhibitors in PBS and 90 μl of substrate. Venoms were used at 1 μg/reaction and final inhibitor concentrations ranged from 150 μM to 150 nM. Samples were preincubated for 30 min at 37° C. and pipetted in triplicate into 384-well plates (Greiner). Thereafter, data was collected on an Omega FLUOstar (BMG Labtech) instrument at an excitation wavelength of 320 nm and emission wavelength of 405 nm at 25° C. for 1 h. The areas under the curve (AUCs) in the 0-40 min interval were calculated for each sample using MARS data analysis software v3.31 (BMG Labtech); this time point was chosen as the time where all fluorescence curves had reached a plateau (maximum fluorescence). For comparing venom-only samples, the means of at least three independent experimental runs for each condition, expressed as AUCs (n≥3), were plotted at each inhibitor concentration with standard error of the mean (SEM). To determine inhibitor efficacy, the AUCs for each of the samples that consisted of venom+inhibitors were transformed and expressed as percentages of the venom-only sample (where the venom was 100%). The negative control (PBS only) was also expressed relative to the venom, and the variation in background was presented as an interval delineated by the lowest and highest values in the PBS-only samples across concentrations and inhibitors for a specific venom. […] However, only the latter two concentrations were sufficiently depleted of DMSO for viable use in the assay.

[2] = system: procoagulant and anticoagulant toxins fractionated from D. russelii venom; experiment: Nanofractionation of D. russelii venom with plasma coagulation assay; assay type: biochemical, Daboia russelii; conditions: inhibitor 20 μM to 0.0064 μM
Description: FIG. 12. […] The data is plotted separately for ‘very fast coagulation’, ‘medium coagulation’ and ‘anticoagulation’, based on the slopes of the 0-5 min and 0-20 min readings, and the single endpoint reading at 180 min. The tested inhibitor concentrations are presented alongside the chromatograms. […] The data is presented as the maximal clotting velocity at each concentration, and represents means of triplicate independent repeats with SEMs, where each technical repeat represents the mean of n≥2 technical replicates. The venom-only control (top dashed lines) and the negative control (bottom dashed lines) are presented as intervals and represent the average±SEM observed for the venom-only and PBS controls across all datasets and replicates.
Fifty microlitres of venom solution (D. russelii; 1 mg/ml) was injected into a Shimadzu LC-2010 system with nanofractionation in parallel. Separation was performed on a Waters XBridge reversed-phase C18 column (250×4.6 mm column with 3.5 μm pore-size) at 30° C. The total flow rate of the mobile phase solution was 0.5 ml/min with eluent A (98% H2O, 2% acetonitrile [ACN], 0.1% formic acid [FA]) and eluent B (98% ACN, 2% H2O, 0.1% FA). Liquid chromatography gradients consisted of a linear increase of mobile phase B from 0 to 50% in 20 min, followed by a linear increase to 90% B in 4 min, then isocratic at 90% B for 5 min, after which the percentage of mobile phase B was decreased from 90% to 0% in 1 min, followed by 10 min at 0% B to re-equilibrate. The effluent was split in a 1:9 ratio of which the 10% fraction was sent to a Shimadzu SPD-M20A prominence diode array detector and the 90% fraction was directed to a nanofractionation collector which dispensed the fractions into transparent 384-well plates (F-bottom, rounded square well, polystyrene, without lid, clear, non-sterile; Greiner Bio One, Alphen aan den Rijn, The Netherlands) at a resolution of 6 s/well. […]
The final assay concentrations of the inhibitors tested in the assay were 20 μM, 4 μM, 0.8 μM, 0.16 μM, 0.032 μM and 0.0064 μM. […] The plate was then read immediately for absorbance kinetically for 100 min at 595 nm at 25° C. using a Varioskan™ Flash Multimode Reader (Thermo Fisher Scientific, Ermelo, The Netherlands). The obtained results were normalized by dividing the slope measured in each well by the median of all slope values across the plate, and the processed coagulation chromatograms were plotted to visualize very fast coagulation, medium increased coagulation and anticoagulation, as previously described^37.

[3] = Tolerability of oral DMPS; assay type: in vivo
Echis ocellatus venom = conditions: previous work, same preclinical model; cited from earlier work

Row | SMILES | neutralization of SVMP bioactivity ([1]; marimastat 150 nM-150 μM, batimastat […] and 150 nM only) | inhibition of anticoagulant fractions of D. russelii venom [2] | inhibition of procoagulant fractions of D. russelii venom [2] | lowest concentration effective / required to fully inhibit SVMP activities ([1]; concentrations tested 150 μM to 150 nM) [µM] | IC50 ([1]; range across venoms, 1 μg venom/reaction, read-out: IC50s, inhibition of SVMP activity) [nM] | oral dose that is well tolerated and safe [3] | time for which lethality was prevented (Echis ocellatus venom) [h]
1 | CNC(=O)[C@@H](NC(=O)[C@H](CC(C)C)[C@H](O)C(=O)NO)C(C)(C)C [marimastat] | complete in vitro neutralization | not neutralized by this inhibitor at any of the tested concentrations | effectively inhibited in a dose-dependent manner | – | – | – | –
2 | O=S(=O)(O)CC(S)CS (stereo not drawn) [DMPS, 2,3-dimercapto-1-propanesulfonic acid] | – | – | – | 15 | 290 to 4190 | up to 1,500 mg | ~8
3 | CCc1c(C(=O)C(N)=O)c2c(OCC(=O)O)cccc2n1Cc1ccccc1 [varespladib] | – | effectively inhibited the anticoagulant activity | some inhibitory effect against procoagulant venom toxins, but only at very high doses (20 μM) | – | – | – | –

Source: US12285408B2, “Methods and compositions for the treatment of snake bite” (priority 2021, dated 2025)
